For the test, the target named is T1, TLR4/MyD88 binding (Rattus norvegicus, UniProt Q9QX05).
T1 construct: from tissue; host or cells: ventral tegmental area (VTA) of alcohol-preferring (P) rats
T1 sequence (Q9QX05 26-835): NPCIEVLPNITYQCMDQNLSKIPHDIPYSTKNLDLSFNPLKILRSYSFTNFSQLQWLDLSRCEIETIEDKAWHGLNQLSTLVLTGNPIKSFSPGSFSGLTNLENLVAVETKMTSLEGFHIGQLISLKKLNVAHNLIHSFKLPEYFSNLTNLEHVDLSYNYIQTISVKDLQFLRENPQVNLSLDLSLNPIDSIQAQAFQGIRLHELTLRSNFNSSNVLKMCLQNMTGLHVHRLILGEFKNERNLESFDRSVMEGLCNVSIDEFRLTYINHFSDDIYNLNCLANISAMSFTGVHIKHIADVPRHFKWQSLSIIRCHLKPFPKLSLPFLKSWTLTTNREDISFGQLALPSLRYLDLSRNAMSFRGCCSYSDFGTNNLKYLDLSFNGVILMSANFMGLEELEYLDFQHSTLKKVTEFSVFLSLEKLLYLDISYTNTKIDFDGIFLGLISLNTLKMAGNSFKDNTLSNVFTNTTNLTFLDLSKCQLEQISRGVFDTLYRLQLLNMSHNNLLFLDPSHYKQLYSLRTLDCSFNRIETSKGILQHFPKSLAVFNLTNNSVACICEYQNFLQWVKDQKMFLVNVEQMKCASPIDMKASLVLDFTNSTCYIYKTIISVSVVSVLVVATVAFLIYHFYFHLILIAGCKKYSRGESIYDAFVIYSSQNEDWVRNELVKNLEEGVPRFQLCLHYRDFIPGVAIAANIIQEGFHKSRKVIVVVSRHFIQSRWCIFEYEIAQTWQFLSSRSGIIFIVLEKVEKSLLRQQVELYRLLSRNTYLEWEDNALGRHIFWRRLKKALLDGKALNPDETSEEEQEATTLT
As to the kind of experiment: TLR4/MyD88 co-immunoprecipitation in P rat VTA. It counts as in vivo. The note with it: 15 mg/kg IP, P rats. As for the experimental part:
Co-Immunoprecipitation Assay RAW264.7 cells [treated with LPS (1 μg/ml), 3α,5α-THP (1 μM) or pregnenolone (1 μM)] were exposed to chemical protein crosslinking (Poulopoulos et al, 2009) at 24 hrs post-treatment. Briefly, the cells were incubated (20 min on ice) with 1 mM of the cleavable, membrane-permeable crosslinker DSP (Thermo Fisher Scientific, Cat. #PG82081). Rat VTA homogenates were incubated (20 min on ice) with 200 μM of DSP. The crosslinker was quenched in 1 M Tris buffer (pH 7.5) (to a final concentration of 10-20 mM), and the material was centrifuged at 21,000×g for 15 min. Proteins from the cells were extracted with Pierce IP Lysis Buffer (Thermo Fisher Scientific, Cat. #87787) supplemented with protease and phosphatase inhibitor cocktails (Sigma). Proteins from the VTA were extracted with CelLytic MT (dialyzable mild detergent, bicine and 150 mM NaCl; Sigma Aldrich, St. Louis, Mo., USA, Cat. #C3228) supplemented with protease and phosphatase inhibitor cocktails (Sigma) according to the manufacturers instructions. […]

Where “and” joins values, the source holds several entries; their conditions need not be identical. Equal values may be shown once.

For the compound `CC(=O)[C@H]1CC[C@H]2[C@@H]3CC[C@H]4C[C@H](O)CC[C@]4(C)[C@H]3CC[C@]12C` [3α,5α-THP, (3α,5α)3-hydroxypregnan-20-one], the “inhibition of TLR4/MyD88 binding in VTA” value is 43.5±5.4% and ~40%.

Values taken from patent US20210205329A1 (The University of North Carolina at Chapel Hill, priority 2018, published 2021).
